In patent US4808521A, “Double-labeled enzymeimmunoassay methods” (priority 1985, dated 1989):

Molecular target: β-galactosidase (Escherichia coli, UniProt P00722)
Experiment: Kinetics of β-galactosidase hydrolysis of p-NPBG and its inhibition by diethanolamine
Type: biochemical
Details: about 1M diethanolamine, pH 8.6, normal p-NPBG concentrations (up to approximately 5mM)
Method: β-galactosidase has a pH optimum of 7.4 for p-nitrophenyl-β-D-galactoside (p-NPBG), although in a single assay format using normal substrate concentrations (up to approximately 5mM), the pH can be raised to 8.6 with only a slight loss (approximately 20%) of activity.

β-galactosidase, sequence (P00722 2-1024): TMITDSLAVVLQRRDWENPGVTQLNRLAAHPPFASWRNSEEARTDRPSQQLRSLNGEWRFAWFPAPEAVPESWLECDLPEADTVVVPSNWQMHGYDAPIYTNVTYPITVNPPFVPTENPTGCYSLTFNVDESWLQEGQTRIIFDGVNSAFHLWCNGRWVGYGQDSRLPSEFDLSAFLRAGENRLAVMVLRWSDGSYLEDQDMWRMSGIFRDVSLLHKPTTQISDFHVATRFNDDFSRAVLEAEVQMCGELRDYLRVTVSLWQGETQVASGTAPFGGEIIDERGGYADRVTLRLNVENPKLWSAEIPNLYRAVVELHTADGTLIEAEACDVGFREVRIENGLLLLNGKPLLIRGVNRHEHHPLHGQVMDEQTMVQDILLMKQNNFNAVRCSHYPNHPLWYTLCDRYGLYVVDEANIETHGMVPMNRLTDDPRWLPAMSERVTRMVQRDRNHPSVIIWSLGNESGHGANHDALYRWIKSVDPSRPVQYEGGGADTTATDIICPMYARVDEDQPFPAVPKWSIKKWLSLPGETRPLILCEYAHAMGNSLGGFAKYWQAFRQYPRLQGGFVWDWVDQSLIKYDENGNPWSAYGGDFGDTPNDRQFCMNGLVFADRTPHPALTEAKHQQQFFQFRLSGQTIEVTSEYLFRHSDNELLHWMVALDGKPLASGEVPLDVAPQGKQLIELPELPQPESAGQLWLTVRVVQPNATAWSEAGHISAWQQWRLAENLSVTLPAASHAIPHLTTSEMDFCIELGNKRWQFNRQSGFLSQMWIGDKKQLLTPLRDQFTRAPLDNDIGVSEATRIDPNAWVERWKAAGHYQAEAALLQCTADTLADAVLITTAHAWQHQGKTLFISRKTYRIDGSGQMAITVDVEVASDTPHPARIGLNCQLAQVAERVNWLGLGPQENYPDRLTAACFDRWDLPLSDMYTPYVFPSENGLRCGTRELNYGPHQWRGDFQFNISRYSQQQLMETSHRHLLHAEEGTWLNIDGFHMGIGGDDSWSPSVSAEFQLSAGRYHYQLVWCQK

## OCCNCCO [diethanolamine]
  activity of β-galactosidase in the presence of diethanolamine: almost totally abolished
